Measured values: PubChem BioAssay AID2060511 (Molecular Pharmacology Branch, DTP, NCI, 2025)

Test system: 422866-222-R5-J1-PDC spheroids with HUVEC/MSC, viability
Assay: Anticancer human tumor 422866-222-R5-J1-PDC patient-derived pancreatic adenocarcinoma cell line growth inhibition [GQUAD]
Settings: for IC50: curve of first compound; for viability, T/C: stronger effect = lower value
Text: DNA G-quadruplex Stabilizer Agents in Combinations in Complex Spheroids
A high-throughput screen of multi-cell type tumor spheroids was designed to identify active combinations of DNA G-quadruplex stabilizer agents and targeted small molecules. Complex spheroids include a stromal component modeled by human endothelial cells (HUVEC) and fibroblasts modeled by human mesenchymal stem cells (MSCs). The concentration ranges selected for each drug and investigational agent were based upon clinically achievable concentrations if the clinical Cmax of the agent was known.
Compounds. The drugs and investigational agents: pidnarulex (CX-5461; NSC782164), APTO-253 (NSC789042), BRACO-19 (NSC847499), peposertib (NSC802822), ceralasertib (NSC780249), elimusertib (NSC800525), camonsertib (NSC841442), AZD-1390 (NSC803789), olaparib (NSC753686), talazoparib (NSC767125), ART-558 (NSC835418), sotorasib (NSC818433), MRTX-1133 (NSC836407), SN-38 (NSC673596), topotecan (NSC609699), etoposide (NSC141540), doxorubicin (NSC123127), gemcitabine (NSC613327), 5-fluorouracil (NSC19893), paclitaxel (NSC125973), vemurafenib (NSC761431), panobinostat (NSC761190), R-306465 (JNJ-16241199; NSC773264), adavosertib (NSC754352), TP-3654 (NSC805149), carboplatin (NSC241240), KSQ-4279 (NSC840948), and staurosporine (NSC755774) were obtained from the National Cancer Institute (NCI) Developmental Therapeutics Program Chemical Repository (34). The FDA-approved anticancer drug set is available from the NCI Developmental Therapeutics Program. […] The stock solutions were prepared in dimethyl sulfoxide (DMSO, Sigma-Aldrich, St. Louis, MO, cat. D2650) at 800-fold the tested concentration and stored at -70 degrees C prior to their use. All drugs and investigational agents were tested over a range starting from a high concentration at or near the clinical Cmax and decreasing in half-log increments. If the clinical Cmax for an agent had not been determined, the highest concentration tested was 10 microM.
2.3 Cell Culture. All cells were maintained in an incubator at 37 degrees C and 5% CO2 with 95% humidity. The PDC lines were cultured according to standard operating procedures established by the NCI PDMR. All PDCs were thawed and cultured in Matrigel-coated flasks prepared with a working solution of 1X Ham's F-12 nutrient mix, without supplementation (Invitrogen, cat. 11765054), 100 U/mL penicillin-streptomycin (Invitrogen, cat. 15140122), and 2.5% Matrigel (Corning Inc., cat. 354248) for the first three passages. The 857933-349-R-J2-PDC line was cultured in 6C/Colon 1B media, which includes advanced DMEM/F-12 (Thermo Fisher Scientific, cat. 12634028), 10 mM HEPES (Thermo Fisher Scientific, cat. 15630080), 1X GlutaMAX supplement (Thermo Fisher Scientific, cat. 35050061), 0.1 mg/mL primocin (InvivoGen, cat. ant-pm-2), 10% defined fetal bovine serum, heat inactivated (HyClone Laboratories Inc., cat. SH30070.03HI), 50% L-WRN conditioned media (ATCC, cat. CRL-3276), 1.25 mM N-Acetyl-L-cysteine (Sigma-Aldrich, cat. A9165), 10 mM nicotinamide (Sigma-Aldrich, cat. N0636), 1X B-27 supplement (Thermo Fisher Scientific, cat. 17504044), 1X N-2 supplement (Thermo Fisher Scientific, cat. 17502048), 10 microM Y-27632 dihydrochloride (Tocris Bioscience, cat. 1254), and 50 ng/mL human EGF recombinant protein (Thermo Fisher Scientific, cat. PHG0311). The 485176-168-R4-J1-PDC line was cultured in Panc media, which includes all 6C/Colon 1B media components plus 100 ng/mL human FGF-10 (Thermo Fisher Scientific, cat. 100-26), 500 nM SB-431542 (Selleckchem, cat. S1067), and gastrin (Tocris, cat. 3006).
[…]

[1] = second compound 0.0316 µM, first compound 0.0316 µM
[2] = second compound 0.0316 µM, first compound 0.1 µM
[3] = second compound 0.0316 µM, first compound 0.316 µM
[4] = second compound 0.0316 µM, first compound 1 µM
[5] = second compound 0.0316 µM, first compound 3.16 µM
[6] = second compound 0.0316 µM, first compound 10 µM
[7] = second compound 0.1 µM, first compound 0.0316 µM
[8] = second compound 0.1 µM, first compound 0.1 µM
[9] = second compound 0.1 µM, first compound 0.316 µM
[10] = second compound 0.1 µM, first compound 1 µM
[11] = second compound 0.1 µM, first compound 3.16 µM
[12] = second compound 0.1 µM, first compound 10 µM
[13] = second compound 0.316 µM, first compound 0.0316 µM
[14] = second compound 0.316 µM, first compound 0.1 µM
[15] = second compound 0.316 µM, first compound 0.316 µM
[16] = second compound 0.316 µM, first compound 1 µM
[17] = second compound 0.316 µM, first compound 3.16 µM
[18] = second compound 0.316 µM, first compound 10 µM
[19] = second compound 1 µM, first compound 0.0316 µM
[20] = second compound 1 µM, first compound 0.1 µM
[21] = second compound 1 µM, first compound 0.316 µM
[22] = second compound 1 µM, first compound 1 µM
[23] = second compound 1 µM, first compound 3.16 µM
[24] = second compound 1 µM, first compound 10 µM
[25] = second compound 3.16 µM, first compound 0.0316 µM
[26] = second compound 3.16 µM, first compound 0.1 µM
[27] = second compound 3.16 µM, first compound 0.316 µM
[28] = second compound 3.16 µM, first compound 1 µM
[29] = second compound 3.16 µM, first compound 3.16 µM
[30] = second compound 3.16 µM, first compound 10 µM
[31] = second compound 10 µM, first compound 0.0316 µM
[32] = second compound 10 µM, first compound 0.1 µM
[33] = second compound 10 µM, first compound 0.316 µM
[34] = second compound 10 µM, first compound 1 µM
[35] = second compound 10 µM, first compound 3.16 µM
[36] = second compound 10 µM, first compound 10 µM
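Note: spheroids exposed to compounds for seven days before reading.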
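Throughout, for viability, T/C: percent viability relative to DMSO vehicle control taken as 100%.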

## C#Cc1c(F)ccc2cc(O)cc(-c3ncc4c(N5CC6CCC(C5)N6)nc(OCC56CCCN5CC(F)C6)nc4c3F)c12 (stereo unspecified) + CN(C)c1ccc(Nc2c3ccc(NC(=O)CCN4CCCC4)cc3nc3cc(NC(=O)CCN4CCCC4)ccc23)cc1
Second compound 0.0316 µM
  IC50: 1130 nM
Second compound 0.1 µM
  IC50: 1250 nM
Second compound 0.316 µM
  IC50: 1190 nM
Second compound 1 µM
  IC50: 1110 nM
Second compound 3.16 µM
  IC50: 919 nM
Second compound 10 µM
  IC50: 1590 nM
[1]
  viability, T/C: 97.9%
[2]
  viability, T/C: 91.8%
[3]
  viability, T/C: 87.2%
[4]
  viability, T/C: 50.8%
[5]
  viability, T/C: 36.8%
[6]
  viability, T/C: 29.4%
[7]
  viability, T/C: 102%
[8]
  viability, T/C: 83.4%
[9]
  viability, T/C: 89.6%
[10]
  viability, T/C: 51.1%
[11]
  viability, T/C: 39.9%
[12]
  viability, T/C: 27.3%
[13]
  viability, T/C: 93.2%
[14]
  viability, T/C: 85.9%
[15]
  viability, T/C: 64.5%
[16]
  viability, T/C: 53.5%
[17]
  viability, T/C: 39.3%
[18]
  viability, T/C: 30.2%
[19]
  viability, T/C: 96.4%
[20]
  viability, T/C: 83.6%
[21]
  viability, T/C: 65.7%
[22]
  viability, T/C: 50.1%
[23]
  viability, T/C: 42.1%
[24]
  viability, T/C: 33.6%
[25]
  viability, T/C: 80.5%
[26]
  viability, T/C: 96.1%
[27]
  viability, T/C: 68.6%
[28]
  viability, T/C: 49.5%
[29]
  viability, T/C: 40.3%
[30]
  viability, T/C: 32.2%
[31]
  viability, T/C: 84.6%
[32]
  viability, T/C: 85.1%
[33]
  viability, T/C: 78.5%
[34]
  viability, T/C: 50.8%
[35]
  viability, T/C: 45.5%
[36]
  viability, T/C: 27.2%

## CCCS(=O)(=O)Nc1ccc(F)c(C(=O)c2c[nH]c3ncc(-c4ccc(Cl)cc4)cc23)c1F + CN(C)c1ccc(Nc2c3ccc(NC(=O)CCN4CCCC4)cc3nc3cc(NC(=O)CCN4CCCC4)ccc23)cc1
Second compound 0.0316 µM
  IC50: > 10000 nM
Second compound 0.1 µM
  IC50: > 10000 nM
Second compound 0.316 µM
  IC50: > 10000 nM
Second compound 1 µM
  IC50: > 10000 nM
Second compound 3.16 µM
  IC50: > 10000 nM
Second compound 10 µM
  IC50: > 10000 nM
[1]
  viability, T/C: 95.8%
[2]
  viability, T/C: 117%
[3]
  viability, T/C: 121%
[4]
  viability, T/C: 136%
[5]
  viability, T/C: 164%
[6]
  viability, T/C: 130%
[7]
  viability, T/C: 112%
[8]
  viability, T/C: 91.6%
[9]
  viability, T/C: 112%
[10]
  viability, T/C: 137%
[11]
  viability, T/C: 203%
[12]
  viability, T/C: 128%
[13]
  viability, T/C: 98%
[14]
  viability, T/C: 108%
[15]
  viability, T/C: 122%
[16]
  viability, T/C: 143%
[17]
  viability, T/C: 158%
[18]
  viability, T/C: 127%
[19]
  viability, T/C: 74.3%
[20]
  viability, T/C: 88.3%
[21]
  viability, T/C: 113%
[22]
  viability, T/C: 112%
[23]
  viability, T/C: 196%
[24]
  viability, T/C: 130%
[25]
  viability, T/C: 83.8%
[26]
  viability, T/C: 97.7%
[27]
  viability, T/C: 97%
[28]
  viability, T/C: 157%
[29]
  viability, T/C: 189%
[30]
  viability, T/C: 154%
[31]
  viability, T/C: 90.3%
[32]
  viability, T/C: 90.2%
[33]
  viability, T/C: 123%
[34]
  viability, T/C: 131%
[35]
  viability, T/C: 129%
[36]
  viability, T/C: 153%

## Nc1ccn(C2OC(CO)C(O)C2(F)F)c(=O)n1 (stereo unspecified) + CN(C)c1ccc(Nc2c3ccc(NC(=O)CCN4CCCC4)cc3nc3cc(NC(=O)CCN4CCCC4)ccc23)cc1
Second compound 0.0316 µM
  IC50: 3230 nM
Second compound 0.1 µM
  IC50: 869 nM
Second compound 0.316 µM
  IC50: 1080 nM
Second compound 1 µM
  IC50: 451 nM
Second compound 3.16 µM
  IC50: 277 nM
Second compound 10 µM
  IC50: > 10000 nM
[1]
  viability, T/C: 89.5%
[2]
  viability, T/C: 71.6%
[3]
  viability, T/C: 74.6%
[4]
  viability, T/C: 54.4%
[5]
  viability, T/C: 52.5%
[6]
  viability, T/C: 41.5%
[7]
  viability, T/C: 104%
[8]
  viability, T/C: 70.8%
[9]
  viability, T/C: 66.5%
[10]
  viability, T/C: 43.5%
[11]
  viability, T/C: 44.6%
[12]
  viability, T/C: 39.2%
[13]
  viability, T/C: 91.4%
[14]
  viability, T/C: 68.4%
[15]
  viability, T/C: 54.4%
[16]
  viability, T/C: 57.1%
[17]
  viability, T/C: 48.2%
[18]
  viability, T/C: 36.5%
[19]
  viability, T/C: 72.7%
[20]
  viability, T/C: 59%
[21]
  viability, T/C: 57.6%
[22]
  viability, T/C: 39.6%
[23]
  viability, T/C: 41.3%
[24]
  viability, T/C: 34.7%
[25]
  viability, T/C: 75.6%
[26]
  viability, T/C: 67.6%
[27]
  viability, T/C: 48.7%
[28]
  viability, T/C: 35%
[29]
  viability, T/C: 39.4%
[30]
  viability, T/C: 39.2%
[31]
  viability, T/C: 73.6%
[32]
  viability, T/C: 57.9%
[33]
  viability, T/C: 57.9%
[34]
  viability, T/C: 50.9%
[35]
  viability, T/C: 51.8%
[36]
  viability, T/C: 49%
